Values quoted from earlier work as cited in patent publication US6335036B1, “Granular pharmaceutical preparation of ebselen” (Daiichi Pharmaceutical Co., Ltd., priority 1996, dated 2002).

Conditions: known property, background art

- Solubility in water: slightly soluble in water
SMILES: O=c1c2ccccc2[se]n1-c1ccccc1 [Ebselen, 2-phenyl-1,2-benzisoselenazol-3(2H)-one]
